# Results taken from patent US20010005714A1, “AMPHIPATHIC MOLECULES AS CHOLESTEROL AND OTHER LIPID UPTAKE INHIBITORS” (priority 1996, published 2001).
# Columns and labels:
# [1] = system: normal human BBMV; assay: [14C]Cholesterol uptake from egg PC vesicles by normal human duodenal BBMV; assay type: biochemical; conditions: human duodenal BBMV
# Experimental: Biopsy samples from human duodenum, 20 to 30 mg of wet tissue each, were suspended in 200 μl buffer (12 mM Tris HCl pH 7.2, 300 mM mannitol, 5 mM EGTA, 1 mM phenylmethylsulfonyl fluoride), frozen in liquid nitrogen and stored at −80° C. prior to use. BBMV were prepared by Mg^+2 precipitation (Hauser et al, Biochim. Biophys. Acta 602 567-577 (1980)) as described in detail by Booth et al (Lancet 1 1066-1069 (1985)). Proteinase K treatment of the BBMV was carried out according to Thurnhofer and Hauser (Biochim. Biophys. Acta 1024 249-262 (1990)). […] Small unilamellar phesrholipid vesicles were prepared by tip sonication (Schulthess, Biochemistry 33 4500-4508 (1994)).
# (I) Egg PC small unilamellar vesicles containing […] (^14C] cholesterol and BBMV both dispersed in 10 mM Tris-HCl pH 7.2, 0.15 M NaCl, 5 mM EDTA were incubated at room temperature. After timed intervals phospholipid vesicles and BBMV were separated by centrifugation at 115000 g for 2 min in a Beckman airfuge. The radioactivities present in pellet and supernatant were determined by counting aliquots in a Beckman LS 7500 liquid scintillatior counter. Fusion of egg PC small unilamellar vesicles and BBMV as a possible mechanism of cholesterol uptake was ruled out as discussed in detail in previous studies (Thurnhofer and Hauser, Biochemistry 29 2142-2148 (1990); Compassi, Biochemistry 34 16473-16482 (1995) and Schulthess, J. Lipid. Res. 37 2405-2419 (1996)).
# The experimental data were computer-fitted using the following equation valid for single-exponential exchange reactions: X=X∞+[XO−X∞]e^-k1^[(a+b)/a]t, where XO, X and X∞represent the fractions of the labelled lipid in the donor at times 0, t and at equilibrium, respectively. K1 is the pseudo-first-order rate constant of the reaction and a and b are the lipid pools of acceptor and donor, respectively (McKay, Nature 142 997-998 (1938) and Mutsch et al, Biochemistry 25 2134-2140 (1986).
# Kinetic measurements were also carried out in the presence of inhibitors; synthetic peptides or apolipoproteins were added to the […] of donor and acceptor vesicles. Cholesterol uptake by native and proteinase K treated BBMV was determined in the presence of increasing concentrations of Ac-18A-NH2, the difference between cholesterol uptake by native and proteinase K treated BBMV is referred as protein-mediated cholesterol uptake in FIG. 6. The IC50 values were determined according to Methods Enzymol. 37 3-22 (1975).
# [2] = system: BBMVs; assay: Inhibition of cholesteryl oleate uptake by BBMVs by peptides of varying lengths (Example 8); assay type: biochemical; conditions: for Inhibition of Cholesteryloleate Uptake In. %: donor 0.05 mg total lipid/ml, acceptor 5 mg protein/ml, 23° C.
# Experimental: going from one peptide to the other (top→bottom) 3 amino acids were removed from the N-terminus. The inhibitory effect of the four peptides listed above were compared at 120 μg peptide/ml. The lipid uptake by BBMVs was measured in the presence of 120 μg peptide/ml each as described below.
# Donor and acceptor particles dispersed in Tris/NaCl buffer were centrifuged in a Beckman airfuge at 115000 g is for 2 min at 4° C. The dispersion of the acceptor yielded a pellet which was resuspended in Tris/NaCl buffer. Varying amounts of inhibitor dissolved in the same buffer were added to the acceptor dispersion and at time zero the dispersiorn of acceptor with or without inhibitor was mixed with the top 80% of the supernatant obtained by centrifugation of the donor dispersion. The final concentration of the donor was 0.05 mg total lipid/ml and that of the acceptor was 5 mg protein/ml. The resulting dispersion was incubated at 23° C. and after timed intervals the sterol uptake was stopped by dilution of the incubation medium with 2 volumes of Tris/NaCl buffer. BBMV were separated from the donor by centrifugation in the Beckman airfuge at 115000 g for 2 min at 4° C. The radioactivities in the supernatant containing the donor and in the pellet containing the BBMV (acceptor) were determined in a Beckman LS 7500 scintillation counter.
# [3] = system: brush border membrane vesicles (BBMV); assay: IC50 of cholesteryl oleate uptake at the brush border membrane (Example 6); assay type: biochemical, rabbit; conditions: donor 0.1 mg total lipid/ml, acceptor 2 mg protein/ml; 20 min at 25° C.
# Experimental: An appropriate amount of inhibitor dissolved in 84.5 μl buffer (0.05 M Tris pH 7.4, 0.15 M NaCl) is mixed in an Eppendorf tube at time zero with 5 μl of a dispersion of donor and 10.5 μl of a dispersion of acceptor (i.e. brush border membrane vesicles (BBMV)) in the same buffer. The final concentration of the donor vesicles was 0.1 mg total lipid/ml, that of the acceptor was 2 mg protein/ml. The resulting mixture was incubated for 20 min at 25° C., and the reaction was stopped by adding 60 μl of the incubation medium to 120 μl ice-cold bufferin an airfuge tube. The diluted dispersion was immediately centrifuiaed in the airfuge at […] for 2 min. at 4° C. to separate donor vesicles from BBMV. Two 60 μl aliquots of the donor (=supernatant) were counted in a Beckman LS-7500 liquid scintillating counter to determine the radioactivity remaining in tbe donor.
# Small unilamellar egg phosphatidycholine (PC) vesicles containing 1 mol % of cholesterol oleate and a trace amount of ^3H-cholesterol oleyl ether were made by dissolving the appropriate amounts of the lipids in CHCl3/CH3OH, (2:1, by vol.), taking the solution to dryness on a rotary evaporator and drying the residue in vacuo. The dried lipid film was dispersed in the appropriate volume of buffer by hand-shaking. The lipid dispersion was subjected to tip sonication as described in Brunner et al, J. Biol. Chem. 253 7538-7546 (1978). The resulting donor dispersion in buffer was centrifuged in the airfuge at 100000 g for 2 min at […]. Only the top 80% of the donor dispersion after centrifugation was used in the lipid uptake experiment.
# BBMV were prepared from frozen rabbit small intestine according to Hauser et al (Biochim. Biophys. Acta 602 567-577 (1980)). Prior to use in the uptake experiment determining IC50 values the BBMV were washed to remove any free protein liberated from the BBM. To this end the BBMV dispersion was diluted with buffer 1:1 in an airfuge tube, and the diluted dispersion was centrifuged in the airfuga at 100000 g for 2 min at […]. The supernatant was is carefully decanted, the pellet was resuspended in buffer to the original volume of the BBMV dispersion, and the dispersion was homogenized. […]
# [4] = system: rabbit BBMV; assay: Dose response of cholesteryl oleate uptake from egg PC SUVs by rabbit BBMV (FIG. 4B); assay type: biochemical; conditions: donor 0.05 mg/ml total lipid, acceptor 1.7 mg protein/ml, 20 min at 25° C., curve fits of FIG. 4B
# Experimental: Small unilamellar vesicles of egg phosphatidylcholine containing 1 mol % cholesteryl oleate and a trace amount of (1,2-^3H2 (N)]-cholesteryl oleyl ether (37 Ci/mmol, from Amersham, UK) as the donor were made as described in Example 1 and BBMVs as the acceptor were prepared from rabbit small intestine (see Example 1). Donor and acceptor both dispersed in Tris/NaCl buffer (0.05 M Tris HCl pH 7.4, 0.15 M NaCl, 0.02% NaN3) and a solution of human apo A-1 or sheep HDL in the same buffer were mixed at time zero (total volume: 0.1 ml) so that the final concentrations of donor and acceptor were 0.05 mg/ml total lipid and 1.7 mg protein/ml, respectively. After incubation of the suspension of donor and acceptor in the presence of inhibitor for 20 min. at 25° C., the reaction was stopped by dilution with 2 vol. of Tris/NaCl buffer. Donor and acceptor were separated by centrifugation in the airfuge at 115,000 g for 2 min. at […]., and the radioactivities in the supernatant containing donor vesicles and in the pellet containing BBMVs were determined in a BECKMAN™ LS 7500 scintillation counter. […]
# Experimental conditions were as described for FIG. 4A. The cholesterol absorption activity of BBMVs measured in the absence of inhibition was taken as 100% and the loss in activity observed in the presence of inhibitor is expressed as %. […]
# [5] = taken from Chapman (1986), for comparison; cited from earlier work
IC50 [3] [µM],IC50 (μg/mL) of cholesteryl oleate uptake at the brush border membrane [3] [µg/mL],Molecule,other results
0.6 ± 0.1,4.8 ± 0.8,Apo C-31: natural (human) apoprotein C-III1,
0.5 ± 0.2,4.2 ± 0.2,Apo C-32: natural (human) apoprotein C-III2,
2.9 ± 0.2,95 ± 7,Apo E: natural (human) apoprotein E,
3.8 ± 0.3,66 ± 5,apo A-II: human apolipoprotein A-2,IC-50 [4]: 66 µg/mL

# Continued, molecule first:
Molecule,IC50 [3] [µM],IC50 (μg/mL) of cholesteryl oleate uptake at the brush border membrane [3] [µg/mL],other results
"Ac-Asp-Trp-Leu-Alα—Lys-Asp-Tyr-Phe-Lys-Lys-Alα —Leu-Val-Glu-Glu-Phe-Alα—Lys-NH2 [scrambled Ac-18A-NH2, reference compound]",,,inhibition of protein-mediated cholesterol uptake (in words) [1]: inactive
Ac-Lys-Alα-Phe-Tyr-Asp-Lys-Val-Alα-Glu-Lys-Leu-Lys-Glu-Alα α-Phe-NH2 (Ac-KAFYDKVAEKLKEAF-NH2) [Ac-15A-NH2],,,"inhibitory effect on cholesteryl oleate uptake (in words, footnote) ([2]; 120 μg peptide/ml): Useful inhibitory effect is seen with Peptides Nos. 1 and 2.; Inhibition of Cholesteryloleate Uptake In. % ([2]; 120 μg peptide/ml): 85%; cholesteryl oleate uptake inhibition activity relative to Ac-18A-NH2 ([2]; brush border membrane vesicle model): 85%"
"Apo C-1: natural (human) apoprotein C-I (TPDVSSALDKLKEFGNTLEDKARELISRIKQSELSAKMREWFSETFQKVKEKLKIDS; Apolipoprotein C-I; UniProt P02654 27-83, looked up)",1.8 ± 0.4,12 ± 2,
CH3CO—VAEKLKEAF—NH2 (Ac-VAEKLKEAF-NH2) [Ac-9A-NH2],,,Inhibition of Cholesteryloleate Uptake In. % ([2]; 120 μg peptide/ml): 0%
CH3CO—YDKVAEKLKEAF—NH2 (Ac-YDKVAEKLKEAF-NH2) [Ac-12A-NH2],,,Inhibition of Cholesteryloleate Uptake In. % ([2]; 120 μg peptide/ml): 20%
"Apo C-2: natural (human) apoprotein C-II (protein, UniProt P02655 29-101, looked up, Apolipoprotein C-II) Apolipoprotein C-II: DEMPSPTFLTQVKESLSSYWESAKTAAQNLYEKTYLPAVDEKLRDLYSKSTAAMSTYTGIFTDQVLSVLKGEE",2.1 ± 0.1,19 ± 1,
"rabbit apo A-1: rabbit apolipoprotein A-1, literature values for comparison (protein, UniProt P09809 25-266, looked up, Apolipoprotein A-I, rabbit apolipoprotein A-1, literature values for comparison) Apolipoprotein A-I: DEPRSSWDKIKDFATVYVDTVKDSGREYVAQFEASAFGKQLNLKLLDNWDSLSSTVSKLQEQLGPVTQEFWDNLEKETEGLREEMNKDLQEVRQKVQPYLDEFQKKWQEEVERYRQKVEPLGAELRESARQKLTELQEKLSPLAEELRDSARTHVDTLRTKLAPYSNELQQRLAARLESIKEGGGASLAEYQAKAREHLSVLSEKARPALEDLRQGLLPVLESFKASVQNVLDEATKKLNTQ",,,isoelectric point [5]: 5.50
"Apo A-4: natural (human) apoprotein A-IV (protein, UniProt P06727 21-396, looked up) Apolipoprotein A-IV: EVSADQVATVMWDYFSQLSNNAKEAVEHLQKSELTQQLNALFQDKLGEVNTYAGDLQKKLVPFATELHERLAKDSEKLKEEIGKELEELRARLLPHANEVSQKIGDNLRELQQRLEPYADQLRTQVSTQAEQLRRQLTPYAQRMERVLRENADSLQASLRPHADELKAKIDQNVEELKGRLTPYADEFKVKIDQTVEELRRSLAPYAQDTQEKLNHQLEGLTFQMKKNAEELKARISASAEELRQRLAPLAEDVRGNLRGNTEGLQKSLAELGGHLDQQVEEFRRRVEPYGENFNKALVQQMEQLRQKLGPHAGDVEGHLSFLEKDLRDKVNSFFSTFKEKESQDKTLSLPELEQQQEQQQEQQQEQVQMLAPLES",0.7 ± 0.1,32 ± 4,
